“And” between values parts separate entries of the source, which are not always exact repeats. Equal values may be shown once. Where a name gives a salt, the structure may show the parent alone.

The first experiment concerns SARS-CoV-2. As to the kind of experiment: Antiviral activity against SARS-CoV-2 (USA-WA1/2020 strain) measured by imaging in HRCE cells at MOI 0.4 after 96 hrs (reported as hit score from 0-1 for on-disease vs off-disease activity: scores >0.6 considered hits). To be noted: Homo sapiens. It is filed as functional.
For Eplivanserin hemifumarate, the Hit score is -0.0126. Turning to FLUPENTIXOL, the Hit score amounted to 0.12. With GADODIAMIDE, the Hit score came to 0.193. The same measure, in the same setting: the value for MONOCTANOIN was -0.0148. Regarding OXALIPLATIN, the Hit score is 0.0878.

For the compound SPIRAMYCIN, the Hit score is 0.139 and 0.136. Turning to THIMEROSAL, the Hit score was -0.0445.

hemomex-s gave a Hit score of 0.064. Consider perchlozone, for which the Hit score was found to be 0.0874. In turn, stetaderm showed a Hit score of 0.101.

Another experiment deals with SARS-CoV-2. As to the kind of experiment: Antiviral activity against SARS-CoV-2 (USA-WA1/2020 strain) measured by imaging in Vero cells at MOI 0.08 after 48 hrs (reported as hit score from 0-1 for on-disease vs off-disease activity: scores >0.6 considered hits). The format is functional, Chlorocebus sabaeus.
Conditions: not given
The compound `OC[C@H]1NC[C@H](O)[C@@H](O)[C@H]1O` gave a Hit score of 0.1704. `CC(C)CN(C[C@@H](O)[C@H](Cc1ccccc1)NC(=O)O[C@H]1CO[C@H]2OCC[C@H]21)S(=O)(=O)c1ccc(N)cc1` gave a Hit score of 0.153. In turn, `NC(=O)c1nc(F)cnc1O` came in with a Hit score of 0.1243. `N[C@@H](CCN[C@@H](CCN1CC[C@H]1C(=O)O)C(=O)O)C(=O)O`: the Hit score is on record as 0.1086. For the compound `CCC(CC)COC(=O)[C@H](C)N[P@](=O)(OC[C@H]1O[C@@](C#N)(c2ccc3c(N)ncnn23)[C@H](O)[C@@H]1O)Oc1ccccc1`, the Hit score was determined as 0.5934.

Compound `O=S(=O)(c1cccc2c(Cl)cccc12)N1CCCNCC1` returned a Hit score of 0.1073. For `CC(C)(C)NC(=O)[C@@H]1CN(Cc2cccnc2)CCN1C[C@@H](O)C[C@@H](Cc1ccccc1)C(=O)N[C@H]1c2ccccc2C[C@H]1O.O`, the Hit score was found to be 0.2525. The compound `CCOC(=O)[C@H]1O[C@@H]1C(=O)N[C@@H](CC(C)C)C(=O)NCCC(C)C` [ALOXISTATIN] had a Hit score of 0.4403. Same read-out and setting: to `CN(C)C(=O)COC(=O)Cc1ccc(OC(=O)c2ccc(NC(=N)N)cc2)cc1` [CAMOSTAT] belongs 0.2137; to `CCN(CC)CCCC(C)Nc1ccnc2cc(Cl)ccc12` (configuration not stated) [CHLOROQUINE], 0.6704.

In the case of `CC(C)c1nc(CN(C)C(=O)N[C@@H](CCN2CCOCC2)C(=O)N[C@H](CC[C@H](Cc2ccccc2)NC(=O)OCc2cncs2)Cc2ccccc2)cs1` [COBICISTAT], the Hit score was 0.2397. On to `COC(=O)/C=C/C(=O)OC` [DIMETHYL FUMARATE], for which the Hit score came to 0.1078. The same measure, in the same setting: the value for `N#C[C@@]1(c2ccc3c(N)ncnn23)O[C@H](CO)[C@@H](O)[C@H]1O` [GS-441524] was 1. Consider `O=C(CCCN1CCC(O)(c2ccc(Cl)cc2)CC1)c1ccc(F)cc1` [HALOPERIDOL], for which the Hit score is on record as 0.07542. On the same count and under the same terms, to `CCN(CCO)CCCC(C)Nc1ccnc2cc(Cl)ccc12.O=S(=O)(O)O` (configuration not stated) [HYDROXYCHLOROQUINE SULFATE] belongs 0.5553.

The compound `CC[C@H](Nc1ncnc2[nH]cnc12)c1nc2cccc(F)c2c(=O)n1-c1ccccc1` [IDELALISIB] had a Hit score of -0.08519. As to `CC(C)Cn1cnc2c(N)nc3ccccc3c21` [IMIQUIMOD], the Hit score amounted to 0.3174. For the compound `COc1ccc2c(c1)c(CC(=O)O)c(C)n2C(=O)c1ccc(Cl)cc1` [INDOMETHACIN], the Hit score came out at 0.1024. Take `Cc1cccc(C)c1OCC(=O)N[C@@H](Cc1ccccc1)[C@@H](O)C[C@H](Cc1ccccc1)NC(=O)[C@H](C(C)C)N1CCCNC1=O` [LOPINAVIR]: the Hit score is on record as 0.1843. Regarding `C[C@H]1C[C@@H]2[C@H]([C@@H](O)C[C@@]3(C)[C@H]2CC[C@]3(O)C(=O)COC(=O)CCC(=O)[O-])[C@@]2(C)C=CC(=O)C=C12.[Na+]` [METHYLPREDNISOLONE SODIUM SUCCINATE], the Hit score came to 0.2294. Regarding `CCC(CC)O[C@@H]1C=C(C(=O)O)C[C@H](N)[C@H]1NC(C)=O` [OSELTAMIVIR CARBOXYLATE], the Hit score is listed as 0.1922. With `C1=N/C2=N/c3ccc(OCCN4CCCC4)c(c3)COC/C=C/COCc3cccc(c3)C(=C1)N2` [PACRITINIB], the Hit score is given as 0.2418. For `Nc1nc(O)c2ncn(CCC(CO)CO)c2n1` [PENCICLOVIR], the Hit score amounted to 0.1283.

As for `OC[C@H]1O[C@@H](Oc2cc(O)cc(/C=C/c3ccc(O)cc3)c2)[C@H](O)[C@@H](O)[C@@H]1O` [PICEID], the Hit score came to 0.06165. Compound `C=C[C@H]1CN2CC[C@H]1C[C@H]2[C@H](OC(=O)OCC)c1ccnc2ccc(OC)cc12` [QUININE ETHYLCARBONATE] had a Hit score of 0.1489. In turn, `C=C[C@H]1CN2CC[C@H]1C[C@H]2[C@H](O)c1ccnc2ccc(OC)cc12` [QUININE] gave a Hit score of 0.2113. The compound `NC(=O)c1ncn([C@@H]2O[C@H](CO)[C@@H](O)[C@H]2O)n1` [RIBAVIRIN] displayed a Hit score of 0.1047.

`CC(C)c1nc(CN(C)C(=O)N[C@H](C(=O)N[C@@H](Cc2ccccc2)C[C@H](O)[C@H](Cc2ccccc2)NC(=O)OCc2cncs2)C(C)C)cs1` [RITONAVIR] registered a Hit score of 0.1477.

In turn, `CC[C@H]1OC(=O)[C@@](C)(F)C(=O)[C@H](C)[C@@H](O[C@@H]2O[C@H](C)C[C@H](N(C)C)[C@H]2O)[C@](C)(OC)C[C@@H](C)C(=O)[C@H](C)[C@H]2N(CCCCn3cc(-c4cccc(N)c4)nn3)C(=O)O[C@]12C` [SOLITHROMYCIN] returned a Hit score of 0.6032.

`CC(C)OC(=O)OCOP(=O)(CO[C@H](C)Cn1cnc2c(N)ncnc21)OCOC(=O)OC(C)C.O=C(O)/C=C/C(=O)O` [TENOFOVIR DISOPROXIL FUMARATE] gave a Hit score of 0.1962.

The compound `CC1=CC(=O)C(C(C)C)=CC1=O` [THYMOQUINONE] yielded a Hit score of 0.2773.

Take `CCOC(=O)c1c(CSc2ccccc2)n(C)c2cc(Br)c(O)c(CN(C)C)c12` [UMIFENOVIR]: the Hit score worked out at 0.1334.
